Measured values: patent EP2033515A1, “Method for improved utilisation of the production potential of transgenic plants” (Bayer CropScience AG, priority 2007, dated 2009)

Experiment: logP determination by reversed-phase HPLC (EEC Directive 79/831 Annex V.A8)
Excerpt: Die Messung der logP Werte erfolgte gemäß EEC Directive 79/831 Annex V.A8 durch HPLC (High Performance Liquid Chromatography) an reverser Phase Säulen (C 18), mit nachfolgenden Methoden: • ^[a] Die Bestimmung erfolgt bei pH 2.3 mit 0,1% wässriger Phosphorsäure und Acetonitril als Eluenten (linearer Gradient von 10 bis 95% Acetonitril). • ^[b] Die Bestimmung erfolgt mit LC-MS bei pH 2,7 mit 0,1 % wässriger Ameisensäure und Acetonitril als Eluenten (linearer Gradient von 10% bis 95% Acetonitril). • ^[c] Die Bestimmung erfolgt mit LC-MS bei pH 7,8 mit 0,001 M wässriger Ammoniumhydrogencarbonat-Lösung und Acetonitril als Eluenten (linearer Gradient von 10 % bis 95 % Acetonitril).
Die Eichung erfolgt mit unverzweigten Alkan-2-onen (mit 3 bis 16 Kohlenstoffatomen), deren logP-Werte bekannt sind (Bestimmung der logP-Werte anhand der Retentionszeiten durch lineare Interpolation zwischen zwei aufeinander folgenden Alkanonen). Die lambda-maX-Werte wurden an Hand der UV-Spektren von 200 bis 400 nm in den Absorptionsmaxima ermittelt.

[1] = aqueous ammonium hydrogen carbonate/acetonitrile, pH 7.8
[2] = method [a]: pH 2.3, 0,1% aqueous phosphoric acid and acetonitrile, linear gradient 10 to 95% acetonitrile
[3] = 0.1% aqueous phosphoric acid/acetonitrile, pH 2.3
[4] = method [c]: LC-MS, pH 7,8, 0,001 M aqueous ammonium hydrogen carbonate and acetonitrile, linear gradient 10 % to 95 % acetonitrile

| log p [2] | log p [4] | Structure (SMILES) | other results |
| --- | --- | --- | --- |
| 3,18 |  | Cc1cc(C(F)(C(F)(F)F)C(F)(F)F)ccc1NC(=O)c1cccc(I)c1C(=O)N[C@@H](C)CS(C)(=O)=O [compound 1] | chromatographic logP [1]: 3.2 |
| 2,78^[a] |  | Cc1c(NC(=O)c2cccc(I)c2C(=O)N[C@@H](C)C[S+](C)[O-])ccc(C(F)(C(F)(F)F)C(F)(F)F)c1F (stereo partly shown) [compound 8] |  |
| 2,97^[a] |  | CC[S+]([O-])C[C@H](C)NC(=O)c1c(I)cccc1C(=O)Nc1ccc(C(F)(C(F)(F)F)C(F)(F)F)c(F)c1C (stereo partly shown) [compound 9] |  |
|  |  | CSC[C@H](C)NC(=O)c1c(Cl)cccc1C(=O)Nc1ccc(C(F)(F)C(F)(F)F)c(F)c1C [compound 11] | log p (method [b]: LC-MS, pH 2,7, 0,1 % aqueous formic acid and acetonitrile, linear gradient 10% to 95% acetonitrile): 3,94^[b] |
| 3,14^[a] |  | CCS(=O)(=O)C[C@H](C)NC(=O)c1c(Cl)cccc1C(=O)Nc1ccc(C(F)(F)C(F)(F)F)c(Cl)c1C [compound 12] |  |
| 2,82^[a] |  | Cc1c(NC(=O)c2cccc(Cl)c2C(=O)N[C@@H](C)CS(C)(=O)=O)ccc(C(F)(F)C(F)(F)F)c1F [compound 13] |  |
| 3,01^[a] |  | CCS(=O)(=O)C[C@H](C)NC(=O)c1c(Cl)cccc1C(=O)Nc1ccc(C(F)(F)C(F)(F)F)c(F)c1C [compound 14] |  |
| 3,93^[a] |  | CSC[C@H](C)NC(=O)c1c(Br)cccc1C(=O)Nc1ccc(C(F)(F)C(F)(F)F)c(F)c1C [compound 15] |  |
| 2,86^[a] |  | Cc1c(NC(=O)c2cccc(Br)c2C(=O)N[C@@H](C)CS(C)(=O)=O)ccc(C(F)(F)C(F)(F)F)c1F [compound 16] |  |
| 4,31^[a] |  | CSC[C@H](C)NC(=O)c1c(Br)cccc1C(=O)Nc1ccc(C(F)(C(F)(F)F)C(F)(F)F)c(F)c1C [compound 17] |  |
| 4,71^[a] |  | CCSC[C@H](C)NC(=O)c1c(I)cccc1C(=O)Nc1ccc(C(F)(C(F)(F)F)C(F)(F)F)c(F)c1C [compound 19] |  |
| 3,47^[a] |  | CCS(=O)(=O)C[C@H](C)NC(=O)c1c(I)cccc1C(=O)Nc1ccc(C(F)(C(F)(F)F)C(F)(F)F)c(F)c1C [compound 21] |  |
| 3,19^[a] |  | CCS(=O)(=O)C[C@H](C)NC(=O)c1c(Br)cccc1C(=O)Nc1ccc(C(F)(F)C(F)(F)F)c(Cl)c1C [compound 22] |  |
| 4,04^[a] |  | CSC[C@H](C)NC(=O)c1c(I)cccc1C(=O)Nc1ccc(C(F)(F)C(F)(F)F)c(F)c1C [compound 23] |  |
| 2,97^[a] |  | Cc1c(NC(=O)c2cccc(I)c2C(=O)N[C@@H](C)CS(C)(=O)=O)ccc(C(F)(F)C(F)(F)F)c1F [compound 24] |  |
| 4,41^[a] |  | CSC[C@H](C)NC(=O)c1c(I)cccc1C(=O)Nc1ccc(C(F)(C(F)(F)F)C(F)(F)F)c(F)c1C [compound 25] |  |
| 4,2^[a] |  | CSC[C@H](C)NC(=O)c1c(I)cccc1C(=O)Nc1ccc(C(F)(F)C(F)(F)F)c(Cl)c1C [compound 26] |  |
| 3,27^[a] |  | Cc1c(NC(=O)c2cccc(I)c2C(=O)N[C@@H](C)CS(C)(=O)=O)ccc(C(F)(C(F)(F)F)C(F)(F)F)c1F [compound 27] |  |
| 3,81^[a] |  | CSC[C@H](C)NC(=O)c1c(Br)cccc1C(=O)Nc1ccc(C(F)(C(F)F)C(F)(F)F)cc1Br (stereo partly shown) [compound 29] |  |
|  |  | CCS(=O)(=O)C[C@H](C)NC(=O)c1c(Br)cccc1C(=O)Nc1ccc(C(F)(C(F)F)C(F)(F)F)cc1Br (stereo partly shown) [compound 30] | chromatographic logP [3]: 3.06 |

| log p [2] | log p [4] | Structure (SMILES) | other results |
| --- | --- | --- | --- |
| 2,5^[a] |  | Cc1c(NC(=O)c2cccc(I)c2C(=O)N[C@@H](C)C[S+](C)[O-])ccc(C(F)(F)C(F)(F)F)c1F (stereo partly shown) [compound 31] |  |
| 3,96^[a] 3,96^[c] | 3,96^[a] 3,96^[c] | CCSC[C@H](C)NC(=O)c1c(I)cccc1C(=O)Nc1ccc(C(F)(C(F)F)C(F)(F)F)cc1C (stereo partly shown) [compound 33] |  |
|  |  | CCSC[C@H](C)NC(=O)c1c(I)cccc1C(=O)Nc1ccc(C(F)(C(F)F)C(F)(F)F)cc1Cl (stereo partly shown) [compound 34] | chromatographic logP [3]: 4.2; chromatographic logP [1]: 4.2 |
| 3,63 | 3,62 | CCSC[C@H](C)NC(=O)c1c(I)cccc1C(=O)Nc1ccc(C(C(F)F)C(F)(F)F)cc1C (stereo partly shown) [compound 35] |  |
| 3,51 | 3,54 | CSC[C@H](C)NC(=O)c1c(I)cccc1C(=O)Nc1ccc(C(C(F)F)C(F)(F)F)cc1Br (stereo partly shown) [compound 37] |  |
| 3,76 | 3,79 | CCSC[C@H](C)NC(=O)c1c(I)cccc1C(=O)Nc1ccc(C(C(F)F)C(F)(F)F)cc1Cl (stereo partly shown) [compound 38] |  |
| 3,78 |  | CCSC[C@H](C)NC(=O)c1c(I)cccc1C(=O)Nc1ccc(C(C(F)F)C(F)(F)F)cc1Br (stereo partly shown) [compound 39] | chromatographic logP [1]: 3.8 |
| 3,57^[a] 3,57^[c] | 3,57^[a] 3,57^[c] | CCSC[C@H](C)NC(=O)c1c(I)cccc1C(=O)Nc1ccc(C(C(F)F)C(F)(F)F)cc1F (stereo partly shown) [compound 40] |  |
| 3,12 | 3,18 | CCS(=O)(=O)C[C@H](C)NC(=O)c1c(I)cccc1C(=O)Nc1ccc(C(F)(C(F)F)C(F)(F)F)cc1Cl (stereo partly shown) [compound 41] |  |
| 2,69 | 2,72 | C[C@@H](CS(C)(=O)=O)NC(=O)c1c(I)cccc1C(=O)Nc1ccc(C(C(F)F)C(F)(F)F)cc1Cl (stereo partly shown) [compound 42] |  |
| 2,71 | 2,76 | C[C@@H](CS(C)(=O)=O)NC(=O)c1c(I)cccc1C(=O)Nc1ccc(C(C(F)F)C(F)(F)F)cc1Br (stereo partly shown) [compound 43] |  |
| 2,72 | 2,76 | C[C@@H](CS(C)(=O)=O)NC(=O)c1c(I)cccc1C(=O)Nc1ccc(C(F)(C(F)F)C(F)(F)F)cc1F (stereo partly shown) [compound 44] |  |
|  | 2,54 | C[C@@H](CS(C)(=O)=O)NC(=O)c1c(I)cccc1C(=O)Nc1ccc(C(C(F)F)C(F)(F)F)cc1F (stereo partly shown) [compound 45] | chromatographic logP (pH 2.3): 2.5 |
| 2,87 | 2,92 | CCS(=O)(=O)C[C@H](C)NC(=O)c1c(I)cccc1C(=O)Nc1ccc(C(C(F)F)C(F)(F)F)cc1Br (stereo partly shown) [compound 46] |  |
| 2,89 | 2,94 | CCS(=O)(=O)C[C@H](C)NC(=O)c1c(I)cccc1C(=O)Nc1ccc(C(F)(C(F)F)C(F)(F)F)cc1F (stereo partly shown) [compound 47] |  |
| 2,65 | 2,69 | CCS(=O)(=O)C[C@H](C)NC(=O)c1c(I)cccc1C(=O)Nc1ccc(C(C(F)F)C(F)(F)F)cc1F (stereo partly shown) [compound 48] |  |
| 2,61 | 2,64 | Cc1cc(C(F)(C(F)F)C(F)(F)F)ccc1NC(=O)c1cccc(Cl)c1C(=O)N[C@@H](C)CS(C)(=O)=O (stereo partly shown) [compound 49] |  |
|  | 2,41 | Cc1c(NC(=O)c2cccc(Cl)c2C(=O)N[C@@H](C)C[S+](C)[O-])ccc(C(C(F)(F)F)C(F)(F)F)c1F (stereo partly shown) [compound 51] | chromatographic logP (pH 2.3): 2.5 |
| 2,58 | 2,51 | Cc1cc(C(C(F)(F)F)C(F)(F)F)c(F)cc1NC(=O)c1cccc(Cl)c1C(=O)N[C@@H](C)C[S+](C)[O-] (stereo partly shown) [compound 52] |  |
| 2,58 | 2,51 | Cc1cc(C(C(F)(F)F)C(F)(F)F)c(F)cc1NC(=O)c1cccc(Br)c1C(=O)N[C@@H](C)C[S+](C)[O-] (stereo partly shown) [compound 53] |  |

| Structure (SMILES) | log p [2] | log p [4] | other results |
| --- | --- | --- | --- |
| CCSC[C@H](C)NC(=O)c1c(I)cccc1C(=O)Nc1ccc(C(F)(C(F)(F)F)C(F)(F)Br)cc1C (stereo partly shown) [compound 32] | 4,68 |  |  |
